Measurements reported in patent publication US20220211821A1, “COMPOSITION FOR PREVENTING OR TREATING OBESITY, COMPRISING PHOSPHOLIPASE A2 AS ACTIVE INGREDIENT” (UNIVERSITY-INOUSTRY COOPERATION GROUP OF KYUNG HEE …, priority 2019, published 2022).

Columns and labels:
[1] = tested on: mice of the HFD group; test: Comparison with mellitin: body weight changes in HFD mice; type: in vivo; details: 0.5 mg/kg intraperitoneally for 16 weeks, vs control group (PBS)
Procedure: In order to investigate a component having an excellent obesity inhibitory effect among the components of bee venom, mellitin, which is the most abundant in bee venom, was compared with bvPLA2, which is PLA2 derived from bee venom.
More specifically, the mice of the ND and HFD groups were intraperitoneally administered with PBS, mellitin, and bvPLA2 at 0.5 mg/kg each for 16 weeks, and then the body weight changes were compared every day.

[2] = tested on: HFD-induced metabolic dysfunction; test: Serum/plasma levels of liver, kidney and metabolic markers by group; type: in vivo, mice
Procedure: The effects of bvPLA2 on liver and kidney functions were investigated.
More specifically, serum levels of alanine aminotransferase (ALT), aminotransferase (AST), blood urea nitrogen (BUN), and […] (Crea) were measured for each group.
In order to investigate the effect of bvPLA2 on metabolic syndrome, the triglyceride (TG), glucose (GLU), high-density lipoprotein cholesterol (HDL-C), and low-density lipoprotein cholesterol (LDL-C) levels were analyzed for each group.
In addition, plasma insulin and leptin levels were analyzed for each group.

[3] = tested on: CD206-deficient (CD206-/-) mice lacking the mannose receptor; test: Body weight and adipose tissue weight of CD206-deficient mice on HFD; type: in vivo; details: HFD+PLA2 vs HFD group
Procedure: (§1) Male C57BL/6 mice (5 weeks old; weight 18-20 g) and CD206−/− mice (B6.129P2-MRC1tm1Mnz/J) were purchased from Jackson Laboratory (Bar Harbor, Me.). After acclimation for one week, the mice were fed a normal diet (ND, 10 kcal %) or a high-fat diet (HFD, 60 kcal %) for 15 weeks. Thereafter, the mice were intraperitoneally injected with PBS or bvPLA2 (0.5 mg/kg) starting on week 5 and continuing for 11 weeks.
In order to investigate the immunoregulatory effect of bvPLA2, CD206-deficient (CD206−/−) mice lacking the mannose receptor were used.
More specifically, the body weight and adipose tissue weight of CD206−/− mice were measured by way of the same method as the above experimental schedule (FIG. 1A).

[4] = tested on: mice with HFD-induced obesity; test: Adipose tissue weight and body weight of mice with HFD-induced obesity; type: in vivo, C57BL/6 mice
Procedure: as §1
The obesity amelioration effect of bvPLA2 was evaluated through changes in adipose tissue weight and body weight of mice with HFD-induced obesity.
More specifically, the […] mice were fed ND or HFD for 15 weeks. After 4 weeks of ND or HFD feeding, the mice were injected with PLA2 or PBS, starting on week 5 (FIG. 1A). Thereafter, the adipose tissue and body weight were measured according to the injection or non-injection of bvPLA2.

[5] = tested on: liver and kidney tissues from the mice; test: H&E staining of liver and kidney: HFD-induced hepatic steatosis and kidney damage; type: in vivo
Procedure: (§2) Liver and kidney tissues were fixed in 4% paraformaldehyde overnight, dehydrated, embedded in paraffin, and sectioned to a thickness of 4 μm. The sections were deparaffinized with xylene and then hydrated again with 100%, 90%, 80%, and 70% ethanol. The hydrated sections were washed with tap water and stained with a hematoxylin solution for 5 minutes. Thereafter, the stained sections were immersed in 1% acid alcohol, and then stained again in an eosin solution for 3 minutes. Thereafter, for mounting, the stained sections were dehydrated with 70%, 80%, 90%, or 100% ethanol […].
In order to investigate whether PLA2 alleviated HFD-induced hepatic steatosis and kidney inflammation, liver and kidney tissues from the mice were H&E stained.
Next, the glomerular diameter indicating an early indicator of diabetic nephropathy caused by kidney damage was investigated.

[6] = tested on: obesity-induced mice, regulatory T cell depletion; test: Body weight of obesity-induced mice with regulatory T cell depletion (anti-mouse CD25 PC61) or rat IgG control; type: in vivo
Procedure: Anti-mouse CD25 (clone: PC61) was produced from hybridomas obtained from the American Type Culture Collection (ATCC; Manassas, Va., USA), and the mice were intraperitoneally injected with anti-mouse CD25 or rat IgG (Sigma-Aldrich) every 3 days for 11 weeks.
In order to investigate the correlation between bvPLA2 and regulatory T cells, regulatory T cell depletion was performed by injecting anti-mouse CD25 antibody (clone PC61) into mice every 3 days. Rat IgG was used as a control.

[7] = tested on: pro-inflammatory macrophages in WAT; test: H&E histological examination of macrophage infiltration in WAT; type: in vivo, mice; details: bvPLA2-treated HFD+PLA2 group vs HFD group
Procedure: as §2
Since obesity is characterized by the localization of crown-like structures (CLS), which are formed by pro-inflammatory macrophages surrounding dead adipocytes in AT28, H&E histological examination was performed to investigate whether bvPLA2 inhibited the macrophage infiltration in WAT.

[8] = tested on: white adipose tissue (WAT); test: Quantitative real-time PCR of M1/M2 markers and adipogenic factors in white adipose tissue; type: in vivo, mice
Procedure: Total RNA was isolated from white adipose tissue (WAT) samples by using an easy-BLUE RNA extraction kit (iNtRON Biotechnology, Korea), and cDNA was synthesized using Cyclescript reverse transcriptase (Bioneer, Korea). The synthesized cDNA was subjected to quantitative real-time PCR (95° C. for 15 sec, 55° C. for 10 sec, and 72° C. for 10 sec) with SensiFAST SYBR no-Rox kit (Bioline, Korea), and each reaction was performed in triplicate. The primer sequences for the experiment were as follows:
The changes in macrophage phenotypes were analyzed by quantitative real-time PCR analysis.
More specifically, the expressions of TNF-α, IL-1β, and IL-12a were measured to investigate the effect of bvPLA2 on M1-related markers.
In addition, the expressions of the M2-related markers IL-4, CD206, and Ym1 were measured.
In addition, the expressions of PPARγ, C/EBPα, and UCP-1, which are markers related with lipid accumulation and adipogenesis, were measured.

[9] = bvPLA2-treated HFD group vs HFD group
[10] = serum, HFD+PLA2 group vs HFD group
[11] = M1-related marker, HFD+PLA2 group vs HFD group
[12] = M2-related marker, HFD-PLA2 group vs HFD group
[13] = lipid accumulation/adipogenesis marker, HFD+PLA2 group vs HFD group

## mellitin [reference compound]
[1]
  body weight change: increase in body weight

## phospholipase A2 [bvPLA2]
[1]
  body weight change: decrease in body weight
[2]; HFD+PLA2 group vs HFD group
  plasma insulin level: significantly reduced
  plasma leptin level: significantly reduced
[2]; [9]
  serum ALT level: reduced
  serum AST level: reduced
  serum Crea level: reduced
[2]; [10]
  GLU level: significantly reduced
  HDL-C level: significantly reduced
  LDL-C level: significantly reduced
  TG level: significantly reduced
[3]
  adipose tissue weight: no significant changes
  body weight: no significant changes
[4]; HFD+PLA2 group vs HFD group
  epididymal WAT weight: greatly reduced
  inguinal WAT weight: greatly reduced
[4]; HFD+PLA2 group vs HFD group without PLA2, 0.5 mg/kg intraperitoneally from week 5
  body weight: significant reduction in body weight
[4]; all groups (ND, HFD, with or without PLA2)
  food uptake: no food uptake change was observed
[5]; HFD+PLA2 group
  kidney hypertrophy (increased glomerular diameter): no kidney hypertrophy
[5]; ND+PLA2 group
  kidney hypertrophy (increased glomerular diameter): no kidney hypertrophy
  size and weight of the liver (lipid droplet accumulation and hepatomegaly): no influence was observed
[5]; [9]
  size and weight of the liver (lipid droplet accumulation and hepatomegaly): attenuated
[6]; IgG+PLA2 obesity-induced group vs IgG-only obesity-induced group
  body weight: significantly reduced
[6]; PC61+PLA2 group vs PC61-treated group
  body weight: markedly reduced
[7]
  CLS formation in AT: reduced
  macrophage infiltration in AT: reduced
[8]; HFD+PLA2 group vs HFD group
  UCP-1 expression: significantly increased
[8]; [11]
  IL-1β expression: inhibited to levels similar to those in ND
  IL-12a expression: inhibited to levels similar to those in ND
  TNF-α expression: inhibited to levels similar to those in ND
[8]; [12]
  CD206 expression: significantly increased
  IL-4 expression: significantly increased
[8]; [13]
  C/EBPα expression: inhibited
  PPARγ expression: inhibited
